The results in this text go back to BindingDB's records for doi:10.7270/Q2TX3CTT (Broad Institute, 2010).

Structures are written as SMILES.

Glycogen synthase kinase-3 beta, sequence (P49841 whole entry): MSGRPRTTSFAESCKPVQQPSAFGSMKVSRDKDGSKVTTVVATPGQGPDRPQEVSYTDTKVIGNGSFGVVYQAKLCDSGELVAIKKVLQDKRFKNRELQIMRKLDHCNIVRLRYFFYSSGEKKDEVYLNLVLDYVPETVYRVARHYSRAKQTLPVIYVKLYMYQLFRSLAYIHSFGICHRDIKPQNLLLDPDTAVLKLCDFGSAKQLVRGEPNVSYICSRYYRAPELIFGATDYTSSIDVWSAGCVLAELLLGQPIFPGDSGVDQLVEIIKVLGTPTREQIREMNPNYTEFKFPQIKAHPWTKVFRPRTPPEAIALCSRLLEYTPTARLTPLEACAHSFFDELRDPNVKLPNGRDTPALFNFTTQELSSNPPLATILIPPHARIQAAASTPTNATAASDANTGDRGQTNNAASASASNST

The assay addresses Glycogen synthase kinase-3 beta (Homo sapiens, UniProt P49841). The assay is described as follows: GSK3beta kinase inhibitor potency, dose response, biochemical, luminescence, cell-free homogeneous, retest (AID 434954).
Turning to `COc1ccc2nc3c(cc2c1)c(NC(=O)C1CCCO1)nn3CC(C)C` (stereo not given) [N-[6-methoxy-1-(2-methylpropyl)-3-pyrazolo[3,4-b]quinolinyl]-2-oxolanecarboxamide], the EC50 (in general, the concentration giving half of the maximal effect) stood at 0.946 µM. Next, `CCCN1CCN(CCCNC(=O)c2ccc3c(c2)NC(=O)c2ccccc2S3)CC1` [MLS001110989]: above 300 µM; `CCOC(=O)CC(=O)CSc1ccc2nnc(-c3ccc(C)cc3)n2n1` [3-keto-4-[[3-(p-tolyl)-[1,2,4]triazolo[4,3-b]pyridazin-6-yl]thio]butyric acid ethyl ester]: 14.3 µM; `CCOC(=O)c1cnc2ccc(OCC)cc2c1N1CCN(C)CC1` [MLS000047802]: 49.5 µM.

Compound `COc1ccc(OC)c(C(=O)c2coc3ccc(OC(C)=O)cc23)c1` [3-(2,5-dimethoxybenzoyl)-1-benzofuran-5-yl acetate] had an EC50 above 300 µM. Next, `CCCCc1cc(=O)oc2cc(O)cc(O)c12` [4-butyl-5,7-dihydroxy-2H-chromen-2-one]: 15.2 µM; `O=C1C2C3C=CC(C3)C2C(=O)N1CCCCCCN1C(=O)C2C3C=CC(C3)C2C1=O` (stereo not given) [SMR000283963]: above 300 µM; `O=C(CSc1n[nH]c(=O)[nH]c1=O)c1ccc(Cl)cc1Cl` [6-[2-(2,4-dichlorophenyl)-2-oxoethyl]sulfanyl-2H-1,2,4-triazine-3,5-dione]: above 300 µM. Next, `COc1ccc(C2CC(=O)C3C(=Nc4ncnn4C3c3ccccc3C)C2)cc1` (stereo not given): above 300 µM; `CCn1c(C=CN(C(C)=O)c2ccccc2)[n+](CC)c2cc(Cl)ccc21` [N-[(E)-2-(5-chloro-1,3-diethylbenzimidazol-1-ium-2-yl)ethenyl]-N-phenylacetamide;iodide]: above 300 µM. The compound `Cc1ccc(C(=O)ON=C(N)c2ccccn2)c(C)c1` displayed an EC50 of 14.9 µM. Next, `CC(=O)Oc1ccc2occ(C(=O)c3ccccc3)c2c1` [acetic acid (3-benzoyl-5-benzofuranyl) ester]: above 300 µM; `CCN1CCCC1CNC(=O)c1ccc2c(c1)NC(=O)/C(=C\c1ccc(OC)c(OC)c1)S2` (stereo not given) [MLS001030689]: 6.6 µM; `Cc1ccc(S(=O)(=O)N(C)C)cc1NC(=O)c1ccc(OC(F)(F)F)cc1` [SMR000247294]: above 300 µM.

In turn, `CC1(C)CC(=O)C=C(Nc2cccc(O)c2)C1` [MLS000108953] came in with an EC50 above 300 µM. Next, `c1cncc(CNc2nc(-c3cccnc3)nc3ccccc23)c1` [2-pyridin-3-yl-N-(pyridin-3-ylmethyl)quinazolin-4-amine]: above 300 µM; `CCOc1ccccc1N1CCN(S(=O)(=O)c2cc(C)ccc2OC)CC1` [MLS000703554]: above 300 µM; `COc1ccc(C(=O)c2sc(Nc3ccccc3F)nc2N)cc1`: 1.48 µM. In turn, `O=C1Nc2cc(C(=O)NCCCN3CCCC3)ccc2S/C1=C\c1ccccc1` [(2Z)-3-oxidanylidene-2-(phenylmethylidene)-N-(3-pyrrolidin-1-ylpropyl)-4H-1,4-benzothiazine-6-carboxamide] returned an EC50 of 5.9 µM. Next, `CCn1c(=O)c(C(=O)NNC(=O)c2ccccc2)c(O)c2ccccc21`: above 300 µM; `COc1cccc(-n2sc3c(c2=S)-c2cc(OC)ccc2NC3(C)C)c1`: above 300 µM. Next, `COc1ccc(C(=O)/C=C2/C(=O)Nc3ccccc32)c(OC)c1` [SMR000543845]: above 300 µM; `Nc1ccccc1Nc1cc(-c2ccccc2)[nH]n1` [2-N-(5-phenyl-1H-pyrazol-3-yl)benzene-1,2-diamine]: above 300 µM. Next, `CC(Sc1ccc2nnc(-c3ccc(F)cc3)n2n1)C(=O)O` (stereo not given) [2-[[3-(4-fluorophenyl)-[1,2,4]triazolo[4,3-b]pyridazin-6-yl]sulfanyl]propanoic acid]: 21.4 µM; `COc1cc(CN=Nc2nc(Nc3ccccc3)nc(N3CCCCC3)n2)ccc1OCC(=O)O` [SMR000312683]: above 300 µM. In turn, `CN(Cc1ccccc1)S(=O)(=O)c1ccc2c(c1)NC(=O)CC(=O)N2` [N-benzyl-N-methyl-2,4-dioxo-1,5-dihydro-1,5-benzodiazepine-7-sulfonamide] had a half-maximal effective concentration (EC50) above 300 µM. Next, `Cn1nnnc1Sc1c(Cl)cccc1[N+](=O)[O-]` [5-({2-chloro-6-nitrophenyl}sulfanyl)-1-methyl-1H-tetraazole]: above 300 µM; `Cc1nccc(-c2cccc(NC(=O)c3ccccc3Cl)c2)n1` [MLS000859188]: above 300 µM.

`O=C(Nc1ccccc1C(=O)N1CCOCC1)C1CCCO1` (stereo not given) [SMR000077483] yielded an EC50 above 300 µM. Regarding `O=C1Nc2ccccc2Nc2ccc([N+](=O)[O-])cc21` [SMR000550741], the EC50 is 25.4 µM. `CCCc1cc(=O)[nH]c(SCCOc2ccc(OCC)cc2)n1` returned an EC50 above 300 µM. Next, `CC1(C)CC(=O)C=C(Nc2cccc(Cl)c2Cl)C1` [3-[(2,3-dichlorophenyl)amino]-5,5-dimethylcyclohex-2-en-1-one]: above 300 µM; `COc1cccc2cc(C(=O)CS(=O)(=O)c3ccc(C(C)(C)C)cc3)c(=O)oc12` [3-[2-(4-tert-butylphenyl)sulfonyl-1-oxoethyl]-8-methoxy-1-benzopyran-2-one]: above 300 µM. Next, `O=NCc1ccc(Oc2ccccc2Cl)c([N+](=O)[O-])c1` [N-[[4-(2-chlorophenoxy)-3-nitrophenyl]methylidene]hydroxylamine]: 12.8 µM; `CSc1nc(NCc2ccccc2)c2c3c(sc2n1)CN(C)CC3`: 23.3 µM. Next, `COc1ccc(-c2nn(-c3ccccc3)cc2C=NNC(=S)NC(C)C)cc1OC` [1-[[3-(3,4-dimethoxyphenyl)-1-phenyl-4-pyrazolyl]methylideneamino]-3-propan-2-ylthiourea]: above 300 µM; `Cc1ccc(NC(=O)Nc2cc(-c3ccccc3)nn2C)cc1Cl` [N-(3-chloro-4-methylphenyl)-N'-(1-methyl-3-phenyl-1H-pyrazol-5-yl)urea]: above 300 µM. Consider `COC(=O)c1c(N)c(C#N)c2n1CCCCC2` [methyl 2-amino-1-cyano-6,7,8,9-tetrahydro-5H-pyrrolo[1,2-a]azepine-3-carboxylate], for which the EC50 was above 300 µM. Compound `COc1ccc(OC)c(Nc2oc3cc(=O)ccc-3cc2C(N)=O)c1` [2-[(Z)-2,5-Dimethoxy-phenylimino]-7-hydroxy-2H-chromene-3-carboxylic acid amide] returned an EC50 of 11.9 µM. In turn, `O=C1NCCCc2c1oc1ccc(O)cc21` [7-hydroxy-2,3,4,5-tetrahydro-[1]benzofuro[2,3-c]azepin-1-one] yielded an EC50 of 2.07 µM.

Regarding `CCC(C)Nc1nc(N)c([N+](=O)[O-])c(NCCO)n1` (stereo not given) [MLS000332774], the EC50 stood at 14.7 µM. Next, `COc1ccccc1CNC(=O)OCc1nccnc1C(=O)Nc1ccc(Br)cn1` [[3-[(5-bromopyridin-2-yl)carbamoyl]pyrazin-2-yl]methyl N-[(2-methoxyphenyl)methyl]carbamate]: above 300 µM; `O=C(NC(Cc1ccccc1)c1ccc2c(c1)OCCCO2)c1ccccc1` (stereo not given): above 300 µM; `CCOC(=O)c1c(C)[nH]c(C(=O)CSc2nccc(C)n2)c1C` [MLS000391683]: above 300 µM.

The compound `Cc1[nH]nc2c1C(c1ccc(N(C)C)cc1)C1C(=O)CC(C)(C)CC1=N2` (stereo not given) [SMR000343282] gave an EC50 of 28 µM.

Take `O=C(Nc1ncnc2sc3c(c12)CCCC3)c1ccncc1` [N-(5,6,7,8-tetrahydro-[1]benzothiolo[2,3-d]pyrimidin-4-yl)-4-pyridinecarboxamide]: the midpoint of the response, the EC50, lay at 42.4 µM. `COc1ccccc1/C=C/C=C1\Oc2c(ccc(O)c2CN2CCN(CCO)CC2)C1=O` [(2Z)-7-[[4-(2-hydroxyethyl)piperazin-1-yl]methyl]-2-[(E)-3-(2-methoxyphenyl)prop-2-enylidene]-6-oxidanyl-1-benzofuran-3-one] had an EC50 above 300 µM. Next, `O=C(Nc1cccc2c1C(=O)NC2=O)c1cccnc1Cl` [N-[1,3-bis(oxidanylidene)isoindol-4-yl]-2-chloranyl-pyridine-3-carboxamide]: above 300 µM. Next, `CC(C)CC(=O)Nc1ccccc1-c1nnn(CC(=O)N2CCc3ccccc3C2)n1` [SMR000122537]: above 300 µM.

`COc1cccc2cc(CC(=O)c3ccccc3)c(=O)oc12` [8-methoxy-3-(2-oxo-2-phenylethyl)-2H-chromen-2-one]: the EC50 was above 300 µM. In turn, `O=C(C1CCCO1)N1N=C(c2ccc(Br)cc2)CC1c1ccco1` (stereo not given) [MLS000699386] gave an EC50 above 300 µM.

In the case of `CCN1CCN(c2cc(C)c3cc(NC(=O)CCC(=O)Nc4ccc(OC)cc4OC)ccc3n2)CC1` [N'-(2,4-dimethoxyphenyl)-N-[2-(4-ethyl-1-piperazinyl)-4-methyl-6-quinolinyl]butanediamide], the EC50 was above 300 µM. `Nc1nonc1-n1nnc(C(=O)NN=Cc2ccoc2)c1CSc1ccc(Cl)cc1` [1-(4-amino-1,2,5-oxadiazol-3-yl)-5-[(4-chlorophenyl)sulfanylmethyl]-N-(furan-3-ylmethylideneamino)triazole-4-carboxamide] registered an EC50 above 300 µM.

The compound `COc1ccccc1C=NNC(=O)c1nnn(-c2nonc2N)c1CN(C)c1ccccc1` [1-(4-amino-1,2,5-oxadiazol-3-yl)-N-[(2-methoxyphenyl)methylideneamino]-5-[(N-methylanilino)methyl]triazole-4-carboxamide] returned an EC50 of 4.14 µM.

With `O=C(O)CCn1cc(C(=O)O)c(-c2ccccc2)n1` [1-(2-carboxyethyl)-3-phenyl-4-pyrazolecarboxylic acid], the 50% effective concentration (EC50) is above 300 µM. The compound `CCCc1cc(=O)oc2cc(C)cc(O)c12` [5-hydroxy-7-methyl-4-propyl-1-benzopyran-2-one] displayed an EC50 above 300 µM.

Take `CCN(CC)Cc1c(C(=O)OC)nnn1-c1nonc1N` [MLS000085717]: the EC50 was above 300 µM. Regarding `CCOC(=O)c1nnn(-c2nc(OC)nc(N3CCCC3)n2)c1-c1ccccc1`, the EC50 is above 300 µM.

For `COCc1c(C(N)=O)nnn1-c1nonc1N` [MLS000089737], the EC50 is above 300 µM. Next, `COC(=O)CSc1nnc(-c2ccncc2)o1` [methyl 2-[(5-pyridin-4-yl-1,3,4-oxadiazol-2-yl)sulfanyl]ethanoate]: above 300 µM.
